Experimental data: US20190134153A1, “IMMUNOMODULATORY EFFECT OF INHALED KINASE INHIBITOR PEPTIDES IN LUNG” (MOERAE MATRIX, INC., priority 2017, published 2019)
Where a SMILES comes first, the peptide text is derived from it.

Key:
[1] = following repeat dosing
[2] = inhaled, even at high doses
Rat bowel anastomosis = settings: vs placebo; cited from earlier work
[3] = LPS challenge study in healthy smokers: safety and tolerability (adverse events)
Protocol: Period/sequence effects were analyzed to determine potential impact of treatment order.
First multi-day dosing in humans employed a single low dose of 2.25 mg, extrapolated from animal studies (37.5 μg/kg, based on 60 kg human).
The primary study endpoints were safety and tolerability following first repeat administration and induced sputum inflammatory biomarkers interleukin-6 (IL-6), interleukin-1β (IL-1β), interleukin-8 (IL-8) and tumor necrosis factor alpha (TNFα) following inhaled LPS (30 μg) challenge, day 5.

in vitro = settings: cells (cell type not stated)
[4] = test system: Ca2+/calmodulin-dependent protein kinase II (CaMKII); settings: cited from earlier work
PKA = settings: 1 μM; cited from earlier work
PKC = settings: 1 μM; cited from earlier work
CaMKIV = CaMKIV (Homo sapiens, UniProt Q16566); settings: 1 μM; cited from earlier work
CaMKIV, sequence (Q16566 whole entry, species assumed): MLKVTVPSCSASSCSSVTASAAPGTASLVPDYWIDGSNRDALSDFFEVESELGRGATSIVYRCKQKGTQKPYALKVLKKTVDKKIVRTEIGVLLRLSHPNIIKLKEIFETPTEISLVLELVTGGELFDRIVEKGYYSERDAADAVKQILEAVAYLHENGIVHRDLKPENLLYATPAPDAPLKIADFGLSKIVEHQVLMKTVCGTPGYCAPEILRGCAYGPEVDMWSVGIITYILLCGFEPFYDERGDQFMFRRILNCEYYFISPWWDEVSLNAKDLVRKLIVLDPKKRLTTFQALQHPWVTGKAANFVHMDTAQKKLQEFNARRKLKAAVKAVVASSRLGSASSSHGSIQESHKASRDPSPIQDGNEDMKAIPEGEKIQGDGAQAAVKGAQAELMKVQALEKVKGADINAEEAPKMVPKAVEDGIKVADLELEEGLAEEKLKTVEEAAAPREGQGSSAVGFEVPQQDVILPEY

CC(C)C[C@H](NC(=O)[C@H](C)NC(=O)[C@H](CCCCN)NC(=O)[C@H](C)NC(=O)[C@H](CCCNC(=N)N)NC(=O)[C@H](C)NC(=O)[C@H](CCC(N)=O)NC(=O)[C@H](CCCNC(=N)N)NC(=O)[C@H](C)NC(=O)[C@H](C)NC(=O)[C@H](C)NC(=O)[C@H](CCCNC(=N)N)NC(=O)[C@H](C)NC(=O)[C@@H](N)Cc1ccc(O)cc1)C(=O)N[C@@H](C)C(=O)N[C@@H](CCCNC(=N)N)C(=O)N[C@@H](CCC(N)=O)C(=O)N[C@@H](CC(C)C)C(=O)NCC(=O)N[C@H](C(=O)N[C@@H](C)C(=O)N[C@@H](C)C(=O)O)C(C)C [MMI-0100] (H-YARAAARQARAKALARQLGVAA-OH)
effect on lung function (FEV1) [1]: no deleterious effect | MMI-0100 plasma concentrations [2]: little to no detectable | healing (integrity of anastomosis) (Rat bowel anastomosis): healing (integrity of anastomosis) unaffected | Any AE leading to treatment D/C, Patients % ([3]; N = 22): (0%) | Any AE leading to treatment D/C, Patients N ([3]; N = 22): 0 | Any TEAE, Patients % ([3]; N = 22): (40.9%) | Any TEAE, Patients N ([3]; N = 22): 9 | Deaths, Patients % ([3]; N = 22): (0%) | Deaths, Patients N ([3]; N = 22): 0 | Mild TEAE, Patients % ([3]; N = 22): (27.3%) | Mild TEAE, Patients N ([3]; N = 22): 6 | Moderate TEAE, Patients % ([3]; N = 22): (18.2%) | Moderate TEAE, Patients N ([3]; N = 22): 4 | Severe or life threatening TEAE, Patients % ([3]; N = 22): (0%) | Severe or life threatening TEAE, Patients N ([3]; N = 22): 0 | Any serious treatment emergent adverse event, % of subjects ([3]; Safety Population N = 22): (0.5%) | Any serious treatment emergent adverse event, subjects ([3]; Safety Population N = 22): 0 | Concussion (serious TEAE), % of subjects ([3]; Safety Population N = 22): (0%) | Concussion (serious TEAE), subjects ([3]; Safety Population N = 22): 0 | Injury, poisoning and procedural complications (serious TEAE), % of subjects ([3]; Safety Population N = 22): (0%) | Injury, poisoning and procedural complications (serious TEAE), subjects ([3]; Safety Population N = 22): 0 | Joint dislocation (serious TEAE), % of subjects ([3]; Safety Population N = 22): (0%) | Joint dislocation (serious TEAE), subjects ([3]; Safety Population N = 22): 0 | Number of serious treatment emergent adverse events ([3]; Safety Population N = 22): 0 | safety and tolerability ([3]; first repeat administration, 2.25 mg inhaled, 5 days): safe and well-tolerated | half-life (in vitro): ~77 h

autocamtide-2 related inhibitory peptide [AIP]
CaMKII activity ([4]; 1 μM): inhibited completely | IC50 ([4]; CaMKII): 100 nM | PKA activity (PKA): not affected | PKC activity (PKC): not affected | CaMKIV activity (CaMKIV): not affected
